The values below come from ChEMBL document CHEMBL5724914, “Linking interpersonal differences in gut microbiota composition and drug biotransformation activity” (2024).

Series [1] in a line: The drug is tested on Z-030 corresponding to mouse gut metagenome with ENA study accession number: PRJEB37062 and ENA sample accession number: ERS12561829 for biotransformation under anaerobic condition. The drug concentrations were measured over 9 timepoints collected between 0 and 24 hours of incubation by liquid-chromatography-coupled mass spectrometry (LC–MS). To be noted: 2 µM.

Series [2] can be described thus: The drug is tested on Z-026 corresponding to metagenome with ENA study accession number: PRJEB37062 and ENA sample accession number: ERS12561825 for biotransformation under anaerobic condition. The drug concentrations were measured over 9 timepoints collected between 0 and 24 hours of incubation by liquid-chromatography-coupled mass spectrometry (LC–MS). To be noted: 2 µM.

The nature of series [3]: The drug is tested on Z-024 corresponding to pig gut metagenome with ENA study accession number: PRJEB37062 and ENA sample accession number: ERS12561823 for biotransformation under anaerobic condition. The drug concentrations were measured over 9 timepoints collected between 0 and 24 hours of incubation by liquid-chromatography-coupled mass spectrometry (LC–MS). Conditions: 2 µM.

Series [4] is described as follows: The drug is tested on Z-016 corresponding to mouse gut metagenome with ENA study accession number: PRJEB37062 and ENA sample accession number: ERS12561815 for biotransformation under anaerobic condition. The drug concentrations were measured over 9 timepoints collected between 0 and 24 hours of incubation by liquid-chromatography-coupled mass spectrometry (LC–MS). Conditions: 2 µM.

Series [5] can be described thus: The drug is tested on Z-014 corresponding to rat gut metagenome with ENA study accession number: PRJEB37062 and ENA sample accession number: ERS12561814 for biotransformation under anaerobic condition. The drug concentrations were measured over 9 timepoints collected between 0 and 24 hours of incubation by liquid-chromatography-coupled mass spectrometry (LC–MS). Conditions: 2 µM.

The nature of series [6]: The drug is tested on Z-012 corresponding to metagenome with ENA study accession number: PRJEB37062 and ENA sample accession number: ERS12561812 for biotransformation under anaerobic condition. The drug concentrations were measured over 9 timepoints collected between 0 and 24 hours of incubation by liquid-chromatography-coupled mass spectrometry (LC–MS). To be noted: 2 µM.

Series [7] is described as follows: The drug is tested on Z-011 corresponding to mouse gut metagenome with ENA study accession number: PRJEB37062 and ENA sample accession number: ERS12561811 for biotransformation under anaerobic condition. The drug concentrations were measured over 9 timepoints collected between 0 and 24 hours of incubation by liquid-chromatography-coupled mass spectrometry (LC–MS). To be noted: 2 µM.

The nature of series [8]: The drug is tested on WLS-098 corresponding to human gut metagenome with ENA study accession number: PRJEB37062 and ENA sample accession number: ERS12561754 for biotransformation under anaerobic condition. The drug concentrations were measured over 9 timepoints collected between 0 and 24 hours of incubation by liquid-chromatography-coupled mass spectrometry (LC–MS). To be noted: 2 µM.

A short description of series [9]: The drug is tested on WLS-077 corresponding to human gut metagenome with ENA study accession number: PRJEB37062 and ENA sample accession number: ERS12561750 for biotransformation under anaerobic condition. The drug concentrations were measured over 9 timepoints collected between 0 and 24 hours of incubation by liquid-chromatography-coupled mass spectrometry (LC–MS). To be noted: 2 µM.

The nature of series [10]: The drug is tested on WLS-069 corresponding to human gut metagenome with ENA study accession number: PRJEB37062 and ENA sample accession number: ERS12561748 for biotransformation under anaerobic condition. The drug concentrations were measured over 9 timepoints collected between 0 and 24 hours of incubation by liquid-chromatography-coupled mass spectrometry (LC–MS). To be noted: 2 µM.

A short description of series [11]: The drug is tested on WLS-010 corresponding to human gut metagenome with ENA study accession number: PRJEB37062 and ENA sample accession number: ERS12561743 for biotransformation under anaerobic condition. The drug concentrations were measured over 9 timepoints collected between 0 and 24 hours of incubation by liquid-chromatography-coupled mass spectrometry (LC–MS). To be noted: 2 µM.

Series [12] can be described thus: The drug is tested on WLS-006 corresponding to human gut metagenome with ENA study accession number: PRJEB37062 and ENA sample accession number: ERS12561741 for biotransformation under anaerobic condition. The drug concentrations were measured over 9 timepoints collected between 0 and 24 hours of incubation by liquid-chromatography-coupled mass spectrometry (LC–MS). Conditions: 2 µM.

For series [13] the following is noted: human gut metagenome, 24 h, 2 µM.
The conditions of series [14]: human gut metagenome, 24 h, 2 µM. This is another data set of the same source.
For series [15] the following is noted: human gut metagenome, 24 h, 2 µM. This is another data set of the same source.
For series [16] the following is noted: human gut metagenome, 24 h, 2 µM. The source holds these as a separate data set.
For series [17] the following is noted: human gut metagenome, 24 h, 2 µM. This is another data set of the same source.
For series [18] the following is noted: human gut metagenome, 24 h, 2 µM. The source holds these as a separate data set.
For series [19] the following is noted: human gut metagenome, 24 h, 2 µM. The source holds these as a separate data set.
For series [20] the following is noted: human gut metagenome, 24 h, 2 µM. This is another data set of the same source.
Also: call rule not given here.

With `CC(=O)OCC(=O)[C@@]1(OC(C)=O)[C@@H](C)C[C@H]2[C@@H]3C[C@H](F)C4=CC(=O)C=C[C@]4(C)[C@@]3(F)[C@@H](O)C[C@@]21C` [DIFLORASONE DIACETATE], the “Bacterial Biotransformation” value in series [1] was “Compound metabolized”; in [2], “Compound NOT metabolized”; in series [3], “Compound NOT metabolized”; in series [4] it was “Compound metabolized”; in series [5], “Compound NOT metabolized”; in series [6], “Compound metabolized”. Besides, the “Bacterial Biotransformation” value in [7], in series [8], in series [9], in [10], in series [11] and in series [12] was “Compound metabolized” in each case. Further, the “Bacterial Biotransformation” value in [13], in series [14], in series [15], in series [16], in series [17] and in [18] was “Compound metabolized” each time. The results for the “Bacterial Biotransformation” value in series [19] and in series [20] were “Compound NOT metabolized” and “Compound metabolized”, respectively.

For the molecule `CN1CCC(OC(c2ccccc2)c2ccccc2)CC1`, the “Bacterial Biotransformation” value in [1] is recorded as “Compound NOT metabolized”; in series [2], “Compound NOT metabolized”; in series [3], “Compound metabolized”; in [4], “Compound NOT metabolized”; in series [5], “Compound NOT metabolized”; in [6], “Compound NOT metabolized”. For the same molecule, the “Bacterial Biotransformation” value in series [7] is recorded as “Compound NOT metabolized”; in series [8], “Compound metabolized”; in series [9] it was “Compound NOT metabolized”; in [10], “Compound NOT metabolized”; in [11], “Compound NOT metabolized”; in [12] it was “Compound NOT metabolized”. The “Bacterial Biotransformation” value is “Compound NOT metabolized” in series [13]; “Compound metabolized” in series [14]; “Compound metabolized” in [15]; “Compound NOT metabolized” in [16]; “Compound NOT metabolized” in [17]; “Compound NOT metabolized” in series [18]. Further, the “Bacterial Biotransformation” value in series [19] is “Compound NOT metabolized”; in series [20] it was “Compound metabolized”.

`CN1CCC(=C2c3ccccc3CC(=O)c3sccc32)CC1.O=C(O)/C=C/C(=O)O` [KETOTIFEN FUMARATE]: the “Bacterial Biotransformation” value in series [1], in series [2], in [3], in series [4], in series [5] and in series [6] was “Compound NOT metabolized” each time. Besides, the “Bacterial Biotransformation” value is given as “Compound NOT metabolized” in series [7]; “Compound metabolized” in [8]; “Compound NOT metabolized” in [9]; “Compound NOT metabolized” in series [10]; “Compound NOT metabolized” in series [11]; “Compound metabolized” in series [12]. In addition, the “Bacterial Biotransformation” value in [13] is on record as “Compound NOT metabolized”; in series [14], “Compound NOT metabolized”; in series [15], “Compound NOT metabolized”; in series [16], “Compound NOT metabolized”; in series [17], “Compound metabolized”; in series [18], “Compound metabolized”. Also, the figures for the “Bacterial Biotransformation” value in series [19] and in series [20] were “Compound NOT metabolized” and “Compound metabolized”, respectively.

Consider `CN1[C@@H]2CC[C@H]1C[C@@H](OC(=O)c1c[nH]c3ccccc13)C2` [TROPISETRON], for which the “Bacterial Biotransformation” value in series [1], in [2], in series [3], in series [4], in series [5] and in [6] was “Compound NOT metabolized” each time. The “Bacterial Biotransformation” value in [7], in [8], in series [9], in series [10], in series [11] and in [12] was “Compound NOT metabolized” each time. In addition, the “Bacterial Biotransformation” value in [13], in [14], in series [15], in series [16], in [17] and in series [18] was “Compound NOT metabolized” throughout. Also, the “Bacterial Biotransformation” value in series [19] and in series [20] was “Compound NOT metabolized” throughout.

Take `CC(C)c1nc(N(C)S(C)(=O)=O)nc(-c2ccc(F)cc2)c1/C=C/[C@@H](O)C[C@@H](O)CC(=O)[O-].CC(C)c1nc(N(C)S(C)(=O)=O)nc(-c2ccc(F)cc2)c1/C=C/[C@@H](O)C[C@@H](O)CC(=O)[O-].[Ca+2]` [ROSUVASTATIN CALCIUM]: the “Bacterial Biotransformation” value in series [1], in series [2], in series [3], in series [4], in series [5] and in [6] was “Compound NOT metabolized” throughout. Besides, the “Bacterial Biotransformation” value in [7] is “Compound NOT metabolized”; in series [8], “Compound metabolized”; in [9], “Compound metabolized”; in [10], “Compound metabolized”; in [11], “Compound metabolized”; in [12] it was “Compound metabolized”. The “Bacterial Biotransformation” value in series [13] is reported as “Compound metabolized”; in series [14], “Compound metabolized”; in series [15], “Compound metabolized”; in series [16], “Compound NOT metabolized”; in series [17], “Compound metabolized”; in series [18], “Compound NOT metabolized”. Besides, the “Bacterial Biotransformation” value in series [19] is reported as “Compound NOT metabolized”; in series [20], “Compound metabolized”.
